In general, mortality refers to the percentage killed.

Like-named read-outs stand apart in the source and are kept apart here.

Test [1] has as its system Green Peach Aphid (Myzus persicae) (GPA) (MYZUPE). The experiment in a line: Bioassay for Green Peach Aphid (GPA), foliar spray on cabbage seedlings. The format is in vivo. Conditions: 72 h, read-out: % Control (or Mortality) rating, GPA. As to the method: Example A: Bioassay for Green Peach Aphid (Myzus persicae) (GPA) (MYZUPE).
Cabbage seedlings grown in 3-inch pots, with 2-3 small (3-5 cm) true leaves, were used as test substrate. The seedlings were infested with 20-50 GPA (wingless adult and nymph stages) one day prior to chemical application. Four pots with individual seedlings were used for each treatment. Test compounds (2 mg) were dissolved in 2 mL of acetone/methanol (1:1) solvent, forming stock solutions of 1000 ppm test compound. The stock solutions were diluted 5× with 0.025% Tween 20 in H2O to obtain the solution at 200 ppm test compound. A hand-held aspirator-type sprayer was used for spraying a solution to both sides of […] leaves until runoff. Reference plants (solvent check) were sprayed with the diluent only containing 20% by volume of acetone/methanol (1:1) solvent. Treated plants were held in a holding room for three days at approximately 25° C. and ambient relative humidity (RH) prior to grading. Evaluation was conducted by counting the number of live aphids per plant under a microscope. Percent control was measured by using Abbott's correction formula (W. S. Abbott, “A Method of Computing the Effectiveness of an Insecticide” J. Econ. Entomol. 18 (1925), pp. 265-267) as follows. Corrected % Control=100*(X−Y)/X • where • X=No. of live aphids on solvent check plants and • Y=No. of live aphids on treated plants
(§1) Biological Data for Green Peach Aphid (GPA) (MYZUPE) and Sweetpotato Whitefly-crawler (WF) (BEMITA)” (see table section).

The subject of test [2] is Sweetpotato Whitefly-crawler (WF) (Bemisia tabaci) (BEMITA). The experiment in a line: Insecticidal test for Sweetpotato Whitefly-crawler (WF) in foliar spray assay on cotton plants. The format is in vivo. Conditions: 216 h, read-out: % Control (or Mortality) rating, WF. On the procedure:
Example B: Insecticidal test for Sweetpotato Whitefly-crawler (WF) (Bemisia tabaci) (BEMITA) in foliar spray assay.
Cotton plants (Gossypium hirsutum) grown in 3-inch pots, with 1 small (4-5 cm) true leaves, were used as test substrate. The plants were infested with 200-400 whitefly eggs 4-5 days prior to chemical application. Four pots with individual plants were used for each treatment. Test compounds (2 mg) were dissolved in 1 mL of acetone solvent, forming stock solutions of 2000 ppm test compound. The stock solutions were diluted 10× with 0.025% Tween 20 in H2O (diluents) to obtain the solution at 200 ppm test compound. A hand-held aspirator-type sprayer was used for spraying a solution to both sides of cotton leaves until runoff. Reference plants (solvent check) were sprayed with the diluent only containing 10% by volume of acetone solvent. Treated plants were held in a holding room for 9 days at approximately 25° C. and ambient relative humidity (RH) prior to grading. Evaluation was conducted by counting the number of live 3-4 nymph stage per plant under a microscope. Percent control was measured by using Abbott's correction formula (W. S. Abbott, “A Method of Computing the Effectiveness of an Insecticide” J. Econ. Entomol. 18 (1925), pp. 265-267) as follows. Corrected % Control=100*(X−Y)/X • where • X=No. of live nymphs on solvent check plants and • Y=No. of live nymphs on treated plants.
as §1

[3] abbreviates: 200 ppm foliar spray, cabbage seedlings, graded after three days, Abbott corrected % control.
[4] abbreviates: 200 ppm foliar spray, cotton plants, graded after 9 days, Abbott corrected % control.

In the case of `Cc1nc(-c2cc(F)c[n+]([O-])c2)sc1N(C)C(=O)OC(C)(C)C` [CA1, 3-(5-((tert-Butoxycarbonyl)(methyl)amino)-4-methylthiazol-2-yl)-5-fluoropyridine 1-oxide], the mortality at 200 ppm in test [1] (foliar) fell in the range of 80 to 100%; in test [2] (foliar), 0 to 80%.
On to `CSCCC(=O)Nc1sc(-c2cccnc2)nc1Cl` [Compound C3, N-(4-chloro-2-(pyridin-3-yl)thiazol-5-yl)-3-(methylthio)propanamide], for which the mortality at 200 ppm lay in the range of 80 to 100% in test [1] (setting [3]) and 0 to 80% in test [2] (setting [4]).
With `CC(CS(C)(=O)=O)C(=O)N(C)c1sc(-c2ccc[n+]([O-])c2)nc1Cl` (centres unmarked) [Compound F1, 3-(4-Chloro-5-(N,2-dimethyl-3-(methylsulfonyl)propanamido)thiazol-2yl) pyridine 1-oxide], the mortality at 200 ppm was in the range of 80 to 100% in test [1] (setting [3]) and 0 to 80% in test [2] (setting [4]).
The matching figures for `CS(=O)(=O)CCC(=O)Nc1sc(-c2ccc[n+]([O-])c2)nc1Cl` [Compound F2]: 80 to 100% and 0 to 80%.
Turning to `CCN(C(=O)CCS(C)(=O)=O)c1sc(-c2ccc[n+]([O-])c2)nc1Cl` [Compound F3, 3-(4-chloro-5-(N-ethyl-3-(methylsulfonyl)propanamido)thiazol-2-yl)pyridine 1-oxide], the mortality at 200 ppm in test [1] (setting [3]) and in test [2] (setting [4]) was 80 to 100% in each case.
In the case of `CCN(C(=O)CCSCCC(F)(F)F)c1sc(-c2ccc[n+]([O-])c2)nc1Cl` [Compound P1, 3-(4-chloro-5-(N-ethyl-3-((3,3,3-trifluoropropyl)thio)propanamido)thiazol-2-yl)pyridine 1-oxide], the mortality at 200 ppm in test [1] (setting [3]) and in test [2] (setting [4]) was 80 to 100% each time.
For the compound `CCN(C(=O)CC[S+]([O-])CCC(F)(F)F)c1sc(-c2ccc[n+]([O-])c2)nc1Cl` (centres unmarked) [Compound P2, 3-(4-Chloro-5-(N-ethyl-3-((3,3,3-trifluoropropyl)sulfinyl)propanamido)thiazol-2-yl)pyridine 1-oxide], the mortality at 200 ppm in test [1] (setting [3]) and in test [2] (setting [4]) was 80 to 100% each time.
In the case of `CCN(C(=O)CCS(=O)(=O)CCC(F)(F)F)c1sc(-c2ccc[n+]([O-])c2)nc1Cl` [Compound P3, 3-(4-Chloro-5-(N-ethyl-3-((3,3,3-trifluoropropyl)sulfonyl)propanamido)thiazol-2-yl)pyridine 1-oxide], the mortality at 200 ppm in test [1] (setting [3]) and in test [2] (setting [4]) was 80 to 100% in each case.
As to `CCN(C(=O)CCSC)c1sc(-c2ccc[n+]([O-])c2)nc1Cl` [Compound P4, 3-(4-Chloro-5-(N-ethyl-3-(methylthio)propanamido)thiazol-2-yl) pyridine 1-oxide], the mortality at 200 ppm in test [1] (setting [3]) and in test [2] (setting [4]) was 80 to 100% each time.
With `CCN(C(=O)CC[S+](C)[O-])c1sc(-c2ccc[n+]([O-])c2)nc1Cl` (centres unmarked) [Compound P5, 3-(4-Chloro-5-(N-ethyl-3-(methylsulfinyl)propanamido)thiazol-2-yl)pyridine 1-oxide], the mortality at 200 ppm in test [1] (setting [3]) and in test [2] (setting [4]) was 80 to 100% each time.
Consider `CCN(C(=O)C(C)CSC)c1sc(-c2ccc[n+]([O-])c2)nc1Cl` (centres unmarked) [Compound P6, 3-(4-Chloro-5-(N-ethyl-2-methyl-3-(methylthio)propanamido)thiazol-2-yl)pyridine 1-oxide], for which the mortality at 200 ppm in test [1] (setting [3]) and in test [2] (setting [4]) was 80 to 100% in each case.
With `CCN(C(=O)C(C)C[S+](C)[O-])c1sc(-c2ccc[n+]([O-])c2)nc1Cl` (centres unmarked) [Compound P7, 3-(4-Chloro-5-(N-ethyl-2-methyl-3-(methylsulfinyl)propanamido)thiazol-2-yl)pyridine 1-oxide], the mortality at 200 ppm in test [1] (setting [3]) and in test [2] (setting [4]) was 80 to 100% each time.
Turning to `CCN(C(=O)C(C)CS(C)(=O)=O)c1sc(-c2ccc[n+]([O-])c2)nc1Cl` (centres unmarked) [Compound P8, 3-(4-Chloro-5-(N-ethyl-2-methyl-3-(methylsulfonyl)propanamido)thiazol-2-yl)pyridine 1-oxide], the mortality at 200 ppm in test [1] (setting [3]) and in test [2] (setting [4]) was 80 to 100% each time.
For the compound `CSCCC(=O)N(C)c1sc(-c2cc(F)c[n+]([O-])c2)nc1C` [FA1, 3-Fluoro-5-(4-methyl-5-(N-methyl-3-(methylthio)propanamido)thiazol-2-yl)pyridine 1-oxide], the mortality at 200 ppm in test [1] (setting [3]) and in test [2] (setting [4]) was 80 to 100% throughout.
Consider `Cc1nc(-c2cc(F)c[n+]([O-])c2)sc1N(C)C(=O)CCS(C)(=O)=O` [FA2, 3-Fluoro-5-(4-methyl-5-(N-methyl-3-(methylsulfonyl)propanamido)thiazol-2-yl)pyridine 1-oxide], for which the mortality at 200 ppm in test [1] (setting [3]) and in test [2] (setting [4]) was 80 to 100% throughout.
Regarding `Cc1nc(-c2cc(F)c[n+]([O-])c2)sc1N(C)C(=O)CC[S+](C)[O-]` (centres unmarked) [FA3, 3-Fluoro-5-(4-methyl-5-(N-methyl-3-(methylsulfinyl)propanamido)thiazol-2-yl)pyridine 1-oxide], the mortality at 200 ppm in test [1] (setting [3]) and in test [2] (setting [4]) was 80 to 100% throughout.

Values taken from patent US9445597B2, “Pesticidal compositions and related methods” (DOW AGROSCIENCES LLC, priority 2013, dated 2016).
